Results reported in patent US9107954B2, “Bivalent ligands for the treatment of neurological disorders” (Virginia Commonwealth University, priority 2012, dated 2015).
Like-named read-outs stand apart in the source and are kept apart here.

Experiments:
human astrocytes = experiment: Cytotoxicity assay, AOPI live/dead labeling of human astrocytes; assay type: cell-based
Protocol: Cell viability was assessed by measurement of both live and dead cells using dual (green/red) fluorescence labeling with AOPI analyzed with Cellometer Vision CBA (Nexcelom Bioscience LLC).
To determine whether HIV-1±morphine exposure affected astrocyte viability in the presence or absence of MVC or the bivalent compound, a cell death assay was performed at 24 h after treatment.

[1] = tested on: fusion of CCR5-MOR CHO target cells (CD4) with HEK effector cells (HIV-1 gp140); assay type: cell-based; settings: for effect on cell fusion: 1 at 3000 nM, 2 at 10000 nM, maraviroc at 100 nM
[2] = tested on: R5-tropic HIV-1SF162 in primary human astrocytes; experiment: HIV-1SF162 infectivity, Tat luciferase reporter assay in primary human astrocytes; assay type: cell-based; settings: for effect on viral entry / Tat production, Example 4 / effect on virus invasion (Tat expression), Example 3: MVC 100 nM; for effect on viral entry / Tat production, Example 4: NTX 1.5 μM, 18 h; for effect on virus invasion (Tat expression), Example 3: NTX 1500 nM, naltrexone groups with and without morphine
Protocol: Primary human astrocytes (ScienCell catalog #1901) were cultured in 24-well plates and transfected with the plasmid pBlue3′LTR-luc (NIH AIDS Research and Reference Reagent Program) using Lipofectamine 2000 (Invitrogen) followed by infection with HIV-1. After 18-20 h cells were rinsed twice in 1×PBS then lysed in Cell Culture Lysis Reagent (Promega) and relative Tat protein expression was determined by measuring luciferase activity using the Luciferase Assay System (Promega; catalog # E1500). Light units were measured using a PHERAstar FS plate reader (BMG Labtech).
Primary human astroglial cells were infected by incubation with the neurotropic HIV-1 strain SF162. A concentration of HIV-1 p24 50 pg/10^6 cells was used, and a no virus condition served as a negative control. Viral stocks were quantified by assaying for HIV-1 p24 (Alliance p24 Antigen ELISA Kit; Advanced Bioscience, Kensington, Md.).
HIV-1SF162 infectivity of human astroglia was determined based on the relative amount of Tat protein expressed by the virus using a luciferase-based reporter assay. Reporters under the control of the long terminal repeat (LTR) viral promoter are a robust means of measuring HIV-1 infection, since the LTR is activated by HIV-1 Tat, which is only expressed by infected cells.
As the bivalent ligand 1 has been designed as a molecular probe to study the underlying mechanisms of opioid-enhanced NeuroAIDS by targeting the MOR-CCR5 heterodimerization, a luciferase-based HIV-1SF162) infection assay measuring the relative transactivator of transcription (Tat) protein expression in human astrocytes was performed (FIG. 15). Tat is encoded by HIV-1 and is the first protein to be produced after HIV-1 infection. Thus, Tat expression level is directly proportioned to the extent of HIV-1 invasion. Astrocytes were chosen based on the following facts: first, astrocytes express both the MOR and the CCR5. Second, the human blood-brain barrier (BBB) is composed of interacting adjacent cerebral endothelial cells (CECs) and astrocytes, which makes astrocytes a readily accessible target during the course of HIV infection. Thirdly, during NeuroAIDS development astroglia are important cellular sites within the CNS where opioids synergistically potentiate the pathophysiological effects of HIV-1 infection.

MOR [3] = target: T1, MOR (Homo sapiens (Human), UniProt P35372); experiment: DAMGO-stimulated Ca2+ flux assay in hMOR-CHO cells transfected with Gqi5; assay type: cell-based
mu opioid receptor (MOR) = mu opioid receptor (MOR) (Homo sapiens (Human), UniProt P35372); experiment: MOR competitive radioligand binding, [3H]naloxone, hMOR-expressed CHO cells
Protocol: MOR/CHO cell culture and membrane homogenate preparation followed literature report^52.
Saturation binding was performed by incubating membranes for 90 minutes at 30° C. with 0.5-15 nM [^3H]naloxone in assay buffer in a 0.5 mL volume. […] The reaction was terminated by rapid filtration through Whatman GF/B glass fiber filters, followed by 3 washes with 3 mL ice-cold Tris buffer. Bound radioactivity will be determined by liquid scintillation spectrophotometry at 45% efficiency for [^3H].
For competition binding assay (agonists or antagonists), Hill plots linear regression analysis and the Cheng-Prusoff equation were applied to determine the IC50 and Ki values. In [^35S]GTPγS binding assays, agonist concentration effect curves were fit by non-linear regression to obtain Emax and EC50 values; antagonist inhibition of agonist-stimulated [^35S]GTPγS binding was analyzed by Hill analysis and AD50 values were corrected to Ki values using the Cheng-Prusoff equation. All analyses were using Prism 4.0.
Herein is reported the characterization of this novel molecular probe in for its binding affinity, Ca^2+ flux functional activity, and HIV-1 inhibition potency.

MOR [4] = target: T1, MOR; experiment: Calcium mobilization assay, CCR5-MOR CHO co-expressed cell line (Gqi5), DAMGO-stimulated; assay type: cell-based; settings: cells stimulated with DAMGO; read-out: MOR IC50
Protocol: (§1) Having a cell line that consistently expresses both CCR5 and MOR was essential for studying how the two receptors interact with each other using calcium mobilization assays and cell fusion assays. A previously established MOR Chinese hamster ovarian (CHO) cell line was transfected with a plasmid containing CCR5 tagged with a yellow fluorescent protein on its N-terminus (CCR5-YFP). ^1 After 48 hours cells were sorted based upon the presence of the yellow fluorescent protein tag using a flow cytometer. Cells containing the tagged receptors were then cultured and used in the subsequent assays.
(§2) Calcium mobilization is directly related to G protein-coupled receptor (GPCR) activation and therefore is a useful technique to study the functional activity of new ligands.

CCR5 [5] = target: CCR5 (Homo sapiens (Human), UniProt P51681); experiment: Calcium mobilization assay, CCR5-MOR CHO co-expressed cell line (Gqi5), RANTES-stimulated; assay type: cell-based
Chain of CCR5 (Homo sapiens (Human), UniProt P51681) (P51681 whole entry): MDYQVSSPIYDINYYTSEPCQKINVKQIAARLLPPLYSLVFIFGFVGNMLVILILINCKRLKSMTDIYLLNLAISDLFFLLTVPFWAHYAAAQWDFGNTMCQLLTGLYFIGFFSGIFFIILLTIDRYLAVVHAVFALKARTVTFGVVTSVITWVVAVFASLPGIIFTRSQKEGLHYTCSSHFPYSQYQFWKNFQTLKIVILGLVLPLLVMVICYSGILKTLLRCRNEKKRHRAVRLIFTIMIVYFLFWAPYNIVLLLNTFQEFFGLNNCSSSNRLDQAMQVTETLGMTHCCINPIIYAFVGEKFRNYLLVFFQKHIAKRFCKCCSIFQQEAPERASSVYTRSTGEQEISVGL
Protocol: as §1, §2

CCR5 [6] = experiment: Flow cytometry of CCR5 immunofluorescence in HIV-1 infected primary human astrocytes; assay type: cell-based; settings: vs uninfected
Protocol: MOR and CCR5 immunoreactivity were detected by direct immunofluorescence in astroglial cells by flow cytometric analysis. Cells were washed in phosphate-buffered saline (PBS)-0.1% bovine serum albumin (BSA) buffer and incubated with primary MOR antibody followed by a secondary antibody conjugated to allophycocyanin (APC) (Biolegend, Inc; catalog #408001) and Alexa Fluor® 488 conjugated anti-mouse CD195 (CCR5) antibody (Biolegend, Inc; catalog #107008) in permeabilization buffer (PBS-0.1% BSA-0.1% Triton X-100) at a 1:500 dilution. Fluorescence was measured from 10,000 gated cells per treatment in each experiment using a FACSCanto II flow cytometer (BD Biosciences, San Jose, Calif.). Auto-fluorescence was compensated by setting the detector voltage to the minimum level that discriminates between auto-fluorescence and specific immunofluorescence in both negative and positive controls. Isotype control antibodies were used to define settings in histogram plot analyses.
We quantitatively analyzed the effect of MVC and the bivalent compound on CCR5 and MOR expression levels in virally infected astrocytes by flow cytometry. […] Approximately 20,000 events were analyzed per treatment condition in each experiment and size discrimination was used as a crude method for viability determination.

Cc1nnc(C(C)C)n1C1CC2CCC(C1)N2CCC(NC(=O)C1CCC(F)(F)CC1)c1ccc(N)cc1 (stereo not shown)
melting point: 109 to 110 °C

Cc1nnc(C(C)C)n1C1C[C@H]2CC[C@@H](C1)N2CC[C@H](NC(=O)C1CCC(F)(F)CC1)c1ccccc1 (stereo in doubt) [Maraviroc, reference compound]
astrocyte viability (human astrocytes; 100 nM, HIV-1 ± morphine, 24 h): not significantly different | toxicity in the astrocytes, cytotoxicity assays (not shown) (human astrocytes; Example 3): neither maraviroc nor 1 had any toxicity | toxicity to the cells at higher concentration (human astrocytes; concentration higher than 100 nM): increased toxicity to the cells | effect on cell fusion [1]: significantly lowered cell fusion | amplification of cell fusion inhibition when morphine present ([1]; morphine 300 nM): not amplified | effect on viral entry / Tat production, Example 4 [2]: considerably inhibited viral entry | effect on virus invasion (Tat expression), Example 3 [2]: virus invasion is decreased

O=C1CC[C@@]2(O)[C@H]3Cc4ccc(O)c5c4[C@@]2(CCN3CC2CC2)[C@H]1O5 [Naltrexone, reference compound]
effect on viral entry / Tat production, Example 4 [2]: did not show significant effect | effect on virus invasion (Tat expression), Example 3 [2]: no effect on virus invasion

Cc1nnc(C(C)C)n1C1CC2CCC(C1)N2CC[C@H](NC(=O)C1CCC(F)(F)CC1)c1cccc(NC(=O)COCC(=O)NCCCCCCCNC(=O)COCC(=O)N[C@@H]2CC[C@@]3(O)[C@H]4Cc5ccc(O)c6c5[C@@]3(CCN4CC3CC3)[C@H]2O6)c1 (stereo partly shown) [compound 2]
effect on cell fusion [1]: significantly lowered cell fusion | amplification of cell fusion inhibition when morphine present ([1]; morphine 300 nM): 2 fold | IC50 (MOR [3]; DAMGO stimulated, hMOR-CHO Gqi5, read-out: Ca2+ inhibition IC50 ± SEM): 37.8 ± 4.4 nM | agonism in Ca2+ mobilization assay (MOR [3]; hMOR-CHO Gqi5, data not shown): No agonism | Ki (mu opioid receptor (MOR); Example 1, read-out: binding affinity to the mu opioid receptor, Ki): 9.18 ± 3.44 nM | Ki (mu opioid receptor (MOR); mean of three experiments, read-out: Radioligand binding Ki ± SEM): 9.2 ± 3.4 nM | IC50 (MOR [4]): 17.4 ± 5.74 nM | fold loss in CCR5 antagonist activity compared to maraviroc (CCR5 [5]): 800 fold | IC50 (CCR5 [5]; cells stimulated with RANTES): 14000 ± 345 nM

CN1CC[C@]23c4c5ccc(O)c4O[C@H]2[C@@H](O)C=C[C@H]3[C@H]1C5 [morphine, reference compound]
effect of morphine on cell fusion ([1]; morphine 300 nM, +CD4, vs +CD4 alone): significant increase | fold increase in CCR5 expression levels, HIV-1R5 in combination with morphine (CCR5 [6]): 3.3 fold | fold increase in Tat expression after infection with R5 in combination with morphine ([2]; morphine 500 nM, vs uninfected): ~2.7 fold
